Measured values from patent US12371454B2, “Cyclic peptide compound having Kras inhibitory action” (priority 2019, dated 2025).
Positions of bridges follow the written chain, without caps; N, C: chain ends. Non-standard residues stand in square brackets, D forms with d. Residues, ends and D or L forms follow the SMILES beside them. *: point of attachment. hPhe(3-Cl-4-CF3) = N[C@@H](CCc1ccc(C(F)(F)F)c(Cl)c1)C(=O)O; NMePhe(4-CF3) = CN[C@@H](Cc1ccc(C(F)(F)F)cc1)C(=O)O; NMePhe(4-F) = CN[C@@H](Cc1ccc(F)cc1)C(=O)O; NMe3Pal = CN[C@@H](Cc1cccnc1)C(=O)O; NMeCha = CN[C@@H](CC1CCCCC1)C(=O)O; NMeGly(cPr) = CN[C@H](C(=O)O)C1CC1; NMeAhp(2) = CCCCC[C@H](NC)C(=O)O; NMeChg = CN[C@H](C(=O)O)C1CCCCC1; NMeF = CN[C@@H](Cc1ccccc1)C(=O)O; NMeI = CC[C@H](C)[C@H](NC)C(=O)O; NMeD = CN[C@@H](CC(=O)O)C(=O)O; dNMeD = CN[C@H](CC(=O)O)C(=O)O; NMeL = CN[C@@H](CC(C)C)C(=O)O; Ahp(2) = CCCCC[C@H](N)C(=O)O; NMeV = CN[C@H](C(=O)O)C(C)C; d(β3hA) = C[C@@H](N)CC(=O)O; NMeAbu = CC[C@H](NC)C(=O)O; NMeS = CN[C@@H](CO)C(=O)O; Morpholide = C1CN(*)CCO1; NMeA = CN[C@@H](C)C(=O)O; Nle = CCCC[C@H](N)C(=O)O; Piperidide = C1CCN(*)CC1; Pyrrolidide = C1CCN(*)C1; dNMeA = CN[C@H](C)C(=O)O; Ac5c = NC1(C(=O)O)CCCC1; Aze = O=C(O)[C@@H]1CCN1; Sar = CNCC(=O)O; Propyl = CCC*

The molecules below were run against T1, Kras and SOS1 (biotin-tagged human Kras loaded with GDP, His-tagged human SOS1) (Homo sapiens, UniProt P01116, G12D) (assay: Protein-protein interaction inhibition between Kras and SOS1 (KrasGl2D-SOS PPI) using AlphaScreen). Conditions: AlphaScreen; biotin-tagged human Kras loaded with GDP, His-tagged human SOS1; read-out: KRAS G12D-SOS PPI IC50.
T1 construct: made in house; host or cells: E. coli (stated for Kras only)
Type: binding
In short: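 Donor beads (nickel) hold His-SOS1; acceptor beads (streptavidin) hold biotin-Kras bound to GDP. Signal measured at 520-620 nm following 680 nm excitation.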

T1 sequence (P01116 1-188 isoform P01116-2 G12D): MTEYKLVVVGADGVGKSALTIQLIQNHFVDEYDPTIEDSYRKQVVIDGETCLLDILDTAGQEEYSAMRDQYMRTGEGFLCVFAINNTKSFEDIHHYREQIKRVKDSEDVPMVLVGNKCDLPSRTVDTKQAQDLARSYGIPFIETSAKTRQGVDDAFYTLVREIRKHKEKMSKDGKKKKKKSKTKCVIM

Row | Structure (SMILES) | IC50
1 | CC[C@H](C)[C@@H]1NC(=O)[C@H](CC(C)C)N(C)C(=O)C[C@@H](C(=O)N2CCCCC2)N(C)C(=O)[C@H](C2CCCCC2)N(C)C(=O)C2(CCCC2)NC(=O)[C@@H]2CCCN2C(=O)[C@H](CCc2ccc(C(F)(F)F)c(Cl)c2)NC(=O)CN(C)C(=O)[C@H](C2CC2)N(C)C(=O)CN(C)C(=O)CN(C)C1=O [Compound 1666] ([NMeL]I[Sar][Sar][NMeGly(cPr)][Sar][hPhe(3-Cl-4-CF3)]P[Ac5c][NMeChg][NMeD]-Piperidide; lactam N-11) | 1.1 nM
2 | CC[C@H](C)[C@@H]1NC(=O)[C@H](C)N(C)C(=O)C[C@@H](C)NC(=O)[C@H](C(C)C)N(C)C(=O)C2(CCCC2)NC(=O)[C@@H]2CCCN2C(=O)[C@H](CCc2ccc(C(F)(F)F)c(Cl)c2)NC(=O)[C@H]2CCCN2C(=O)[C@H](Cc2ccc(F)cc2)N(C)C(=O)[C@@H]2CCCN2C(=O)CN(C)C1=O [Compound 1667] (cyclo([Ac5c][NMeV][d(β3hA)][NMeA]I[Sar]P[NMePhe(4-F)][dP][hPhe(3-Cl-4-CF3)]P)) | 13 nM
3 | CC[C@H](C)[C@@H]1NC(=O)[C@H](CC(C)C)N(C)C(=O)C[C@@H](C(=O)N2CCCCC2)N(C)C(=O)[C@H](C2CCCCC2)N(C)C(=O)C2(CCCC2)NC(=O)[C@@H]2CCCN2C(=O)[C@H](CCc2ccc(C(F)(F)F)c(Cl)c2)NC(=O)CN(C)C(=O)[C@H](C)N(C)C(=O)CN(C)C(=O)CN(C)C1=O [Compound 1681] ([NMeL]I[Sar][Sar][NMeA][Sar][hPhe(3-Cl-4-CF3)]P[Ac5c][NMeChg][NMeD]-Piperidide; lactam N-11) | 3.1 nM
4 | CC[C@H](C)[C@@H]1NC(=O)[C@H](CC(C)C)N(C)C(=O)C[C@@H](C(=O)N2CCCCC2)N(C)C(=O)[C@H](C2CCCCC2)N(C)C(=O)C2(CCCC2)NC(=O)[C@@H]2CCCN2C(=O)[C@H](CCc2ccc(C(F)(F)F)c(Cl)c2)NC(=O)CN(C)C(=O)[C@H](CO)N(C)C(=O)CN(C)C(=O)CN(C)C1=O [Compound 1687] ([NMeL]I[Sar][Sar][NMeS][Sar][hPhe(3-Cl-4-CF3)]P[Ac5c][NMeChg][NMeD]-Piperidide; lactam N-11) | 4.2 nM
5 | CC[C@H](C)[C@@H]1NC(=O)[C@H](C)N(C)C(=O)C[C@@H](C)NC(=O)[C@H](C2CCCCC2)N(C)C(=O)C2(CCCC2)NC(=O)[C@@H]2CCCN2C(=O)[C@H](CCc2ccc(C(F)(F)F)c(Cl)c2)NC(=O)CN(C)C(=O)[C@H](CC2CCCCC2)N(C)C(=O)CN(C)C(=O)CN(C)C1=O [Compound 1688] (cyclo([Ac5c][NMeChg][d(β3hA)][NMeA]I[Sar][Sar][NMeCha][Sar][hPhe(3-Cl-4-CF3)]P)) | 24 nM
6 | CC[C@H](C)[C@@H]1NC(=O)[C@H](C)N(C)C(=O)C[C@@H](C)NC(=O)[C@H](C(C)C)N(C)C(=O)C2(CCCC2)NC(=O)[C@@H]2CCCN2C(=O)[C@H](CCc2ccc(C(F)(F)F)c(Cl)c2)NC(=O)[C@@H](C)N(C)C(=O)[C@H](Cc2ccccc2)N(C)C(=O)CN(C)C(=O)CN(C)C1=O [Compound 1691] (cyclo([Ac5c][NMeV][d(β3hA)][NMeA]I[Sar][Sar][NMeF][dNMeA][hPhe(3-Cl-4-CF3)]P)) | 120 nM
7 | CCCCC[C@@H]1NC(=O)[C@H](CC(C)C)N(C)C(=O)C[C@@H](C(=O)N2CCCCC2)N(C)C(=O)[C@H](C2CCCCC2)N(C)C(=O)C2(CCCC2)NC(=O)[C@@H]2CCCN2C(=O)[C@H](CCc2ccc(C(F)(F)F)c(Cl)c2)NC(=O)CN(C)C(=O)[C@H](CC2CCCCC2)N(C)C(=O)CN(C)C(=O)CN(C)C1=O [Compound 1692] ([NMeL][Ahp(2)][Sar][Sar][NMeCha][Sar][hPhe(3-Cl-4-CF3)]P[Ac5c][NMeChg][NMeD]-Piperidide; lactam N-11) | 3.5 nM
8 | CC[C@H](C)[C@@H]1NC(=O)[C@H](C)N(C)C(=O)C[C@@H](C(=O)N2CCCCC2)N(C)C(=O)[C@H](C(C)C)N(C)C(=O)C2(CCCC2)NC(=O)[C@@H]2CCCN2C(=O)[C@H](CCc2ccc(C(F)(F)F)c(Cl)c2)NC(=O)CN(C)C(=O)[C@H](Cc2ccc(F)cc2)N(C)C(=O)[C@@H]2CCCN2C(=O)CN(C)C1=O [Compound 1698] ([NMeA]I[Sar]P[NMePhe(4-F)][Sar][hPhe(3-Cl-4-CF3)]P[Ac5c][NMeV][NMeD]-Piperidide; lactam N-11) | 1.2 nM
9 | CC[C@H](C)[C@@H]1NC(=O)[C@H](C)N(C)C(=O)C[C@@H](C(=O)N2CCOCC2)N(C)C(=O)[C@H](C2CCCCC2)N(C)C(=O)C2(CCCC2)NC(=O)[C@H](Cc2cccnc2)N(C)C(=O)[C@H](CCc2ccc(C(F)(F)F)c(Cl)c2)NC(=O)CN(C)C(=O)[C@H](CC2CCCCC2)N(C)C(=O)[C@@H]2CCN2C(=O)CN(C)C1=O [Compound 1703] ([NMeA]I[Sar][Aze][NMeCha][Sar][hPhe(3-Cl-4-CF3)][NMe3Pal][Ac5c][NMeChg][NMeD]-Morpholide; lactam N-11) | 0.41 nM
10 | CC[C@H](C)[C@@H]1NC(=O)[C@H](C)N(C)C(=O)C[C@@H](C(=O)N2CCCC2)N(C)C(=O)[C@H](C(C)C)N(C)C(=O)C2(CCCC2)NC(=O)[C@@H]2CCCN2C(=O)[C@H](CCc2ccc(C(F)(F)F)c(Cl)c2)NC(=O)[C@@H](C)N(C)C(=O)[C@H](CC2CCCCC2)N(C)C(=O)[C@@H]2CCCN2C(=O)CN(C)C1=O [Compound 1715] ([NMeA]I[Sar]P[NMeCha][dNMeA][hPhe(3-Cl-4-CF3)]P[Ac5c][NMeV][NMeD]-Pyrrolidide; lactam N-11) | 2.4 nM
11 | CCCCC[C@H]1C(=O)N(C)[C@H](C(=O)N2CCCCC2)CC(=O)N(C)[C@@H](CC(C)C)C(=O)N[C@@H]([C@@H](C)CC)C(=O)N(C)CC(=O)N(C)CC(=O)N(C)[C@@H](CC2CCCCC2)C(=O)N(C)CC(=O)N[C@@H](CCc2ccc(C(F)(F)F)c(Cl)c2)C(=O)N2CCC[C@H]2C(=O)NC2(CCCC2)C(=O)N1C [Compound 1719] ([NMeL]I[Sar][Sar][NMeCha][Sar][hPhe(3-Cl-4-CF3)]P[Ac5c][NMeAhp(2)][NMeD]-Piperidide; lactam N-11) | 18 nM
12 | CCCC[C@@H]1NC(=O)[C@H](CC(C)C)N(C)C(=O)C[C@@H](C(=O)N2CCCCC2)N(C)C(=O)[C@H](C2CCCCC2)N(C)C(=O)C2(CCCC2)NC(=O)[C@@H]2CCCN2C(=O)[C@H](CCc2ccc(C(F)(F)F)c(Cl)c2)NC(=O)CN(C)C(=O)[C@H](CC2CCCCC2)N(C)C(=O)CN(C)C(=O)CN(C)C1=O [Compound 1723] ([NMeL][Nle][Sar][Sar][NMeCha][Sar][hPhe(3-Cl-4-CF3)]P[Ac5c][NMeChg][NMeD]-Piperidide; lactam N-11) | 3.6 nM
13 | CC[C@H](C)[C@@H]1NC(=O)[C@H](C)N(C)C(=O)C[C@@H](C(=O)N2CCCCC2)N(C)C(=O)[C@H](C(C)C)N(C)C(=O)C2(CCCC2)NC(=O)[C@@H]2CCCN2C(=O)[C@H](CCc2ccc(C(F)(F)F)c(Cl)c2)NC(=O)[C@H]2CCCN2C(=O)[C@H](Cc2ccc(F)cc2)N(C)C(=O)[C@@H]2CCCN2C(=O)CN(C)C1=O [Compound 1725] ([NMeA]I[Sar]P[NMePhe(4-F)][dP][hPhe(3-Cl-4-CF3)]P[Ac5c][NMeV][NMeD]-Piperidide; lactam N-11) | 23 nM
14 | CC[C@H](C)[C@@H]1NC(=O)[C@H](C)N(C)C(=O)C[C@@H](C)NC(=O)[C@H](C(C)C)N(C)C(=O)C2(CCCC2)NC(=O)[C@@H]2CCCN2C(=O)[C@H](CCc2ccc(C(F)(F)F)c(Cl)c2)NC(=O)[C@H]2CCCN2C(=O)[C@H](Cc2ccccc2)N(C)C(=O)[C@@H]2CCCN2C(=O)CN(C)C1=O [Compound 1730] (cyclo([Ac5c][NMeV][d(β3hA)][NMeA]I[Sar]P[NMeF][dP][hPhe(3-Cl-4-CF3)]P)) | 35 nM
15 | CC[C@H](C)[C@@H]1NC(=O)[C@H](C)N(C)C(=O)C[C@@H](C)NC(=O)[C@H](C(C)C)N(C)C(=O)C2(CCCC2)NC(=O)[C@@H]2CCCN2C(=O)[C@H](CCc2ccc(C(F)(F)F)c(Cl)c2)NC(=O)CN(C)C(=O)[C@H](Cc2ccc(F)cc2)N(C)C(=O)[C@@H]2CCCN2C(=O)CN(C)C1=O [Compound 1732] (cyclo([Ac5c][NMeV][d(β3hA)][NMeA]I[Sar]P[NMePhe(4-F)][Sar][hPhe(3-Cl-4-CF3)]P)) | 5.5 nM
16 | CC[C@H](C)[C@@H]1NC(=O)[C@H](CC(C)C)N(C)C(=O)C[C@H](C(=O)N2CCCC2)N(C)C(=O)[C@H]([C@@H](C)CC)N(C)C(=O)C2(CCCC2)NC(=O)[C@@H]2CCCN2C(=O)[C@H](CCc2ccc(C(F)(F)F)c(Cl)c2)NC(=O)CN(C)C(=O)[C@H](Cc2ccc(C(F)(F)F)cc2)N(C)C(=O)[C@@H]2CCN2C(=O)[C@H](C)N(C)C1=O [Compound 1734] ([NMeL]I[NMeA][Aze][NMePhe(4-CF3)][Sar][hPhe(3-Cl-4-CF3)]P[Ac5c][NMeI][dNMeD]-Pyrrolidide; lactam N-11) | 71 nM
17 | CCCOC[C@@H]1NC(=O)[C@H](CC(C)C)N(C)C(=O)C[C@@H](C(=O)N2CCCCC2)N(C)C(=O)[C@H](C2CCCCC2)N(C)C(=O)C2(CCCC2)NC(=O)[C@@H]2CCCN2C(=O)[C@H](CCc2ccc(C(F)(F)F)c(Cl)c2)NC(=O)CN(C)C(=O)[C@H](CC2CCCCC2)N(C)C(=O)CN(C)C(=O)CN(C)C1=O [Compound 1736] ([NMeL]S(Propyl)[Sar][Sar][NMeCha][Sar][hPhe(3-Cl-4-CF3)]P[Ac5c][NMeChg][NMeD]-Piperidide; lactam N-11) | 4.3 nM
18 | CC[C@H](C)[C@@H]1NC(=O)[C@H](CC(C)C)N(C)C(=O)C[C@@H](C(=O)N2CCCCC2)N(C)C(=O)[C@H](CC)N(C)C(=O)C2(CCCC2)NC(=O)[C@@H]2CCCN2C(=O)[C@H](CCc2ccc(C(F)(F)F)c(Cl)c2)NC(=O)CN(C)C(=O)[C@H](CC2CCCCC2)N(C)C(=O)CN(C)C(=O)CN(C)C1=O [Compound 1741] ([NMeL]I[Sar][Sar][NMeCha][Sar][hPhe(3-Cl-4-CF3)]P[Ac5c][NMeAbu][NMeD]-Piperidide; lactam N-11) | 3.8 nM
19 | CC[C@H](C)[C@@H]1NC(=O)[C@H](CC(C)C)N(C)C(=O)C[C@@H](C(=O)N2CCCCC2)N(C)C(=O)[C@H](C2CCCCC2)N(C)C(=O)C2(CCCC2)NC(=O)[C@@H]2CCCN2C(=O)[C@H](CCc2ccc(C(F)(F)F)c(Cl)c2)NC(=O)CN(C)C(=O)[C@H](CC)N(C)C(=O)CN(C)C(=O)CN(C)C1=O [Compound 1743] ([NMeL]I[Sar][Sar][NMeAbu][Sar][hPhe(3-Cl-4-CF3)]P[Ac5c][NMeChg][NMeD]-Piperidide; lactam N-11) | 1.3 nM
